16 compounds from patent publication US11154060B2, “Microbiocidal oxadiazole derivatives” (SYNGENTA PARTICIPATIONS AG, priority 2016, dated 2021) can be followed below.

What is called inhibition is the share of the control response that was lost under treatment. In general, melting point refers to the temperature, or range, at which the solid turns liquid.

One data set deals with Phakopsora pachyrhizi. As to the kind of experiment: Phakopsora pachyrhizi / soybean / leaf disc preventative (Asian soybean rust). The format is in vivo. The conditions noted are these: foliar, soybean leaf disks, inoculated one day after application, assessed 12-14 days after application, read-out: control of Phakopsora pachyrhizi compared to untreated control. An outline of the steps:
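Soybean leaf discs on water agar sprayed with formulated compound diluted in water; spore suspension sprayed on lower surface 1 day later. Kept 24-36 h dark at 20° C, 75% rh, then 12 h light/12 h dark. Percent disease control versus untreated scored 12-14 days after application.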

Data set [1] relates to Puccinia recondita f. sp. tritici. As to the kind of experiment: Puccinia recondita f. sp. tritici / wheat / leaf disc curative (brown rust). The conditions noted are these: foliar, wheat leaf segments cv. Kanzler, applied 1 day after inoculation, assessed 6-8 days after application, read-out: control of Puccinia recondita f. sp. tritici compared to untreated control. It is filed as in vivo. An outline of the steps:
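Wheat cv. Kanzler leaf segments on agar, inoculated with brown rust spores and kept dark at 19 °C, 75% rh; formulated compound sprayed 1 day after inoculation (curative). Incubated 19 °C, 75% rh, 12 h light/dark; percent disease control vs untreated scored 6–8 days after application.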

A further data set has as its system Uromyces viciae-fabae. Description: Uromyces viciae-fabae / field bean / leaf disc preventative (faba-bean rust). It is filed as in vivo. The settings on record: foliar, 288 h, 100 ppm in the applied formulation, field bean leaf discs, inoculated two hours after application, 12 days after application, read-out: disease control compared to untreated control leaf discs. How it is done: Leaf disks or leaf segments of various plant species are cut from plants grown in a greenhouse. The cut leaf disks or segments are placed in multiwell plates (24-well format) onto water agar. The leaf disks are sprayed with a test solution before (preventative) or after (curative) inoculation. Compounds to be tested are prepared as DMSO solutions (max. 10 mg/ml) which are diluted to the appropriate concentration with 0.025% Tween20 just before spraying. The inoculated leaf disks or segments are incubated under defined conditions (temperature, relative humidity, light, etc.) according to the respective test system. A single evaluation of disease level is carried out 3 to 14 days after inoculation, depending on the pathosystem. Percent disease control relative to the untreated check leaf disks or segments is then calculated. Field bean leaf discs are placed on water agar in multiwell plates (96-well format) and 10 μl of the formulated test compound diluted in acetone and a spreader pipetted onto the leaf disc. Two hours after application leaf discs are inoculated by spraying a spore suspension on the lower leaf surface. The leaf discs are incubated in a climate cabinet at 22° C. with 18 hour day and 70% relative humidity. The activity of a compound is assessed as percent disease control compared to untreated when an appropriate level of disease damage appears in untreated check leaf disks (12 days after application).

Data set [2] relates to Puccinia recondita f. sp. tritici. As to the kind of experiment: Puccinia recondita f. sp. tritici / wheat / leaf disc preventative (brown rust). It is filed as in vivo. The settings on record: foliar, wheat leaf segments cv. Kanzler, inoculated 1 day after application, assessed 7-9 days after application, read-out: control of Puccinia recondita f. sp. tritici compared to untreated control. An outline of the steps:
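Wheat leaf segments (cv. Kanzler) on water agar sprayed with compound diluted from DMSO stock in water/0.025% Tween20, then inoculated with P. recondita spores 1 day later. Incubated at 19 °C, 75% rh, 12 h light/dark. Percent disease control versus untreated assessed 7-9 days after application.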

In data set [3] the test system is Glomerella lagenarium (Colletotrichum lagenarium). Description: Glomerella lagenarium (Colletotrichum lagenarium) liquid culture / cucumber / preventative (anthracnose). It is filed as cell-based. The conditions noted are these: Colletotrichum orbiculare, liquid culture in PDB, 24° C., 3-4 days after application, read-out: control of Glomerella lagenarium compared to untreated control (inhibition of growth, photometric). In short, it runs like this: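 Conidia from cryogenic storage mixed into potato dextrose broth and added to compound diluted from DMSO stock with 0.025% Tween20. Incubated at 24 °C; growth inhibition read photometrically 3–4 days after application, as percent antifungal activity versus untreated check.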

Bounds are passed on as bounds.

`CONC(=O)c1ccc(-c2noc(C(F)(F)F)n2)cc1F` [Compound 1.1, 2-fluoro-N-methoxy-4-[5-(trifluoromethyl)-1,2,4-oxadiazol-3-yl]benzamide] returned a melting point of 122 to 125 °C. For the same compound, in the data set on Phakopsora pachyrhizi, the pest or weed control at 200 ppm was ≥ 80%. Also, the pest or weed control at 200 ppm in data set [1] is ≥ 80%. Besides, in the data set with Uromyces viciae-fabae, the pest or weed control at 100 ppm is ≥ 80%. The pest or weed control at 200 ppm in data set [2] is ≥ 80%. In addition, the inhibition at 20 ppm in data set [3] is ≥ 80%.
`CON(C(=O)c1ccc(-c2noc(C(F)(F)F)n2)cc1F)C(C)Cc1c(Cl)cc(Cl)cc1Cl` (centres unmarked) [Compound 1.4, 2-fluoro-N-methoxy-N-[1-methyl-2-(2,4,6-trichlorophenyl)ethyl]-4-[5-(trifluoromethyl)-1,2,4-oxadiazol-3-yl]benzamide] registered a melting point of 83.5 to 86.2 °C. Further, the pest or weed control at 100 ppm in the data set on Uromyces viciae-fabae was ≥ 80%.
`CC(CC#N)ONC(=O)c1ccc(-c2noc(C(F)(F)F)n2)cc1F` (centres unmarked) [Compound 1.11, N-(2-cyano-1-methyl-ethoxy)-2-fluoro-4-[5-(trifluoromethyl)-1,2,4-oxadiazol-3-yl]benzamide]: the melting point was 85.8 to 88 °C. The pest or weed control at 200 ppm in the data set on Phakopsora pachyrhizi was ≥ 80%. Moreover, the pest or weed control at 200 ppm in data set [1] was ≥ 80%. Further, the pest or weed control at 100 ppm with Uromyces viciae-fabae is ≥ 80%. Also, in data set [2], the pest or weed control at 200 ppm was ≥ 80%. In addition, the inhibition at 20 ppm in data set [3] was ≥ 80%.
In the case of `O=C(NOCc1ccccc1)c1ccc(-c2noc(C(F)(F)F)n2)c(F)c1` [Compound 1.16, N-benzyloxy-3-fluoro-4-[5-(trifluoromethyl)-1,2,4-oxadiazol-3-yl]benzamide], the melting point fell in the range of 178 to 181 °C. Moreover, in the data set with Phakopsora pachyrhizi, the pest or weed control at 200 ppm was ≥ 80%. Moreover, the pest or weed control at 200 ppm in data set [1] was ≥ 80%. In data set [2], the pest or weed control at 200 ppm was ≥ 80%. Further, in data set [3], the inhibition at 20 ppm is ≥ 80%.
Consider `CONC(=O)Cc1ccc(-c2noc(C(F)(F)F)n2)c(F)c1` [Compound 1.17, 2-[3-fluoro-4-[5-(trifluoromethyl)-1,2,4-oxadiazol-3-yl]phenyl]-N-methoxy-acetamide], for which the melting point fell in the range of 131 to 133 °C. The pest or weed control at 200 ppm with Phakopsora pachyrhizi was ≥ 80%. In data set [1], the pest or weed control at 200 ppm was ≥ 80%. The pest or weed control at 200 ppm in data set [2] was ≥ 80%. In addition, in data set [3], the inhibition at 20 ppm was ≥ 80%.
For `CON(C)C(=O)Cc1ccc(-c2noc(C(F)(F)F)n2)cc1F` [Compound 1.19, 2-[2-fluoro-4-[5-(trifluoromethyl)-1,2,4-oxadiazol-3-yl]phenyl]-N-methoxy-N-methyl-acetamide], the melting point lay within 104 to 106 °C. The pest or weed control at 200 ppm in the data set on Phakopsora pachyrhizi is ≥ 80%. In data set [1], the pest or weed control at 200 ppm was ≥ 80%. Moreover, in data set [2], the pest or weed control at 200 ppm was ≥ 80%. Further, the inhibition at 20 ppm in data set [3] is ≥ 80%.
Turning to `CCONC(=O)Cc1ccc(-c2noc(C(F)(F)F)n2)cc1F` [Compound 1.21, N-ethoxy-2-[2-fluoro-4-[5-(trifluoromethyl)-1,2,4-oxadiazol-3-yl]phenyl]acetamide], the melting point is 81 to 83 °C. In addition, the pest or weed control at 200 ppm in data set [1] is ≥ 80%. Besides, the pest or weed control at 200 ppm in data set [2] is ≥ 80%. Also, the inhibition at 20 ppm in data set [3] is ≥ 80%.
With `CCONC(=O)Cc1ccc(-c2noc(C(F)(F)F)n2)c(F)c1` [Compound 1.22, N-ethoxy-2-[3-fluoro-4-[5-(trifluoromethyl)-1,2,4-oxadiazol-3-yl]phenyl]acetamide], the melting point lay within 150 to 152 °C. For the same compound, the pest or weed control at 200 ppm in the data set on Phakopsora pachyrhizi is ≥ 80%. The pest or weed control at 200 ppm in data set [1] is ≥ 80%. In data set [2], the pest or weed control at 200 ppm was ≥ 80%. For the same compound, the inhibition at 20 ppm in data set [3] is ≥ 80%.
As to `O=C(Cc1ccc(-c2noc(C(F)(F)F)n2)cc1F)NOCC(F)F` [Compound 1.23, N-(2,2-difluoroethoxy)-2-[2-fluoro-4-[5-(trifluoromethyl)-1,2,4-oxadiazol-3-yl]phenyl]acetamide], the melting point was 114 to 116 °C. Also, the pest or weed control at 200 ppm in data set [1] is ≥ 80%. In addition, the pest or weed control at 200 ppm in data set [2] was ≥ 80%. The inhibition at 20 ppm in data set [3] is ≥ 80%.
`O=C(c1ccc(-c2noc(C(F)(F)F)n2)cc1F)N1CCCO1` [Compound 1.26, [2-fluoro-4-[5-(trifluoromethyl)-1,2,4-oxadiazol-3-yl]phenyl]-isoxazolidin-2-yl-methanone] returned a melting point of 60.3 to 62.4 °C. For the same compound, in data set [1], the pest or weed control at 200 ppm was ≥ 80%. In the data set with Uromyces viciae-fabae, the pest or weed control at 100 ppm was ≥ 80%. Further, the pest or weed control at 200 ppm in data set [2] is ≥ 80%. The inhibition at 20 ppm in data set [3] is ≥ 80%.
`O=C(c1ccc(-c2noc(C(F)(F)F)n2)cc1F)N1CCCCO1` [Compound 1.27, [2-fluoro-4-[5-(trifluoromethyl)-1,2,4-oxadiazol-3-yl]phenyl]-(oxazinan-2-yl)methanone] registered a melting point of 57.3 to 59.4 °C. In addition, in the data set on Phakopsora pachyrhizi, the pest or weed control at 200 ppm is ≥ 80%. The pest or weed control at 200 ppm in data set [1] is ≥ 80%. For the same compound, in the data set on Uromyces viciae-fabae, the pest or weed control at 100 ppm is ≥ 80%. In data set [2], the pest or weed control at 200 ppm was ≥ 80%. The inhibition at 20 ppm in data set [3] was ≥ 80%.
With `CONC(=O)Cc1ccc(-c2noc(C(F)(F)F)n2)cc1` [Compound 2.13, N-methoxy-2-[4-[5-(trifluoromethyl)-1,2,4-oxadiazol-3-yl]phenyl]acetamide], the melting point lay within 131 to 138 °C. For the same compound, the pest or weed control at 200 ppm in the data set on Phakopsora pachyrhizi is ≥ 80%. For the same compound, the pest or weed control at 200 ppm in data set [1] was ≥ 80%. The pest or weed control at 200 ppm in data set [2] is ≥ 80%. For the same compound, in data set [3], the inhibition at 20 ppm is ≥ 80%.
For the compound `CCONC(=O)Cc1ccc(-c2noc(C(F)(F)F)n2)cc1` [Compound 2.16, N-ethoxy-2-[4-[5-(trifluoromethyl)-1,2,4-oxadiazol-3-yl]phenyl]acetamide], the melting point was 171 to 183 °C. For the same compound, in the data set on Phakopsora pachyrhizi, the pest or weed control at 200 ppm was ≥ 80%. The pest or weed control at 200 ppm in data set [1] is ≥ 80%. In addition, in data set [2], the pest or weed control at 200 ppm was ≥ 80%. Besides, the inhibition at 20 ppm in data set [3] was ≥ 80%.
`O=C(Cc1ccc(-c2noc(C(F)(F)F)n2)cc1)NOCC(F)F` [Compound 2.17, N-(2,2-difluoroethoxy)-2-[4-[5-(trifluoromethyl)-1,2,4-oxadiazol-3-yl]phenyl]acetamide] showed a melting point of 140 to 146 °C. Also, the pest or weed control at 200 ppm in the data set with Phakopsora pachyrhizi is ≥ 80%. Also, the pest or weed control at 200 ppm in data set [1] is ≥ 80%. In data set [2], the pest or weed control at 200 ppm is ≥ 80%. In addition, in data set [3], the inhibition at 20 ppm was ≥ 80%.
In turn, `O=C(NOCC(F)F)c1ccc(-c2noc(C(F)(F)F)n2)cc1` [Compound 2.18, N-(2,2-difluoroethoxy)-4-[5-(trifluoromethyl)-1,2,4-oxadiazol-3-yl]benzamide] had a melting point of 134 to 137 °C. In addition, in data set [1], the pest or weed control at 200 ppm was ≥ 80%. For the same compound, the pest or weed control at 200 ppm in data set [2] was ≥ 80%. Further, the inhibition at 20 ppm in data set [3] was ≥ 80%.
Take `O=C(c1ccc(-c2noc(C(F)(F)F)n2)cc1)N1OC2CCC1CC2` [Compound 2.24, 2-oxa-3-azabicyclo[2.2.2]octan-3-yl-[4-[5-(trifluoromethyl)-1,2,4-oxadiazol-3-yl]phenyl]methanone]: the melting point lay within 120 to 121 °C. Also, the pest or weed control at 200 ppm in the data set with Phakopsora pachyrhizi is ≥ 80%. Further, the pest or weed control at 200 ppm in data set [1] is ≥ 80%. Also, in the data set with Uromyces viciae-fabae, the pest or weed control at 100 ppm is ≥ 80%. Besides, the inhibition at 20 ppm in data set [3] is ≥ 80%.
